{"source": "patent US20240350500A1", "about": "“PLK1 INHIBITOR IN COMBINATION WITH ANTI-ANGIOGENICS FOR TREATING METASTATIC CANCER” (CARDIFF ONCOLOGY, INC., priority 2022, published 2024)", "origin": "cited, not measured here", "key": {"[1]": {"system": "disseminated models of AML", "conditions": "in combination with cytarabine"}, "[2]": {"system": "cell lines, both from solid as well as hematologic tumors"}, "[3]": {"system": "HT29 human colon adenocarcinoma xenografts", "conditions": "in combination with irinotecan, compared to each agent alone"}, "[4]": {"conditions": "rodent and nonrodent species"}, "PLK1": {"target": "PLK1 (Homo sapiens, UniProt P53350)", "sequence (P53350 whole entry)": "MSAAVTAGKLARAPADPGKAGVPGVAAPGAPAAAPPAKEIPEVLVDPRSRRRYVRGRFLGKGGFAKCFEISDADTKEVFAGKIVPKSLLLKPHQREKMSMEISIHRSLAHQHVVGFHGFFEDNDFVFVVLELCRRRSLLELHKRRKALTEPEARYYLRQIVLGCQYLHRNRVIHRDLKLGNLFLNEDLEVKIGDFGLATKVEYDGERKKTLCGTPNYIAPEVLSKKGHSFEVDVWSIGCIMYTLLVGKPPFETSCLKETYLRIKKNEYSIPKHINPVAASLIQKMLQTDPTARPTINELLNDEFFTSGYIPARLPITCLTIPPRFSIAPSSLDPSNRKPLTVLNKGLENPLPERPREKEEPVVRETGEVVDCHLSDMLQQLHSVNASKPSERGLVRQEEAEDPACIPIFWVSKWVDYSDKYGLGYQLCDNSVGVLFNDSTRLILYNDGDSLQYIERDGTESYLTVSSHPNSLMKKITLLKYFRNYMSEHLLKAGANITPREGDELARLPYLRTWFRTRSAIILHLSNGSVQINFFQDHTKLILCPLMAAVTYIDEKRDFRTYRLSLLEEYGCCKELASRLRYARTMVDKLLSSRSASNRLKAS", "conditions": "including other PLK members"}, "[5]": {"system": "metastatic colorectal cancer", "conditions": "2nd line"}, "AML [6]": {"system": "AML", "conditions": "intravenously in combination with LDAC, compared with LDAC alone; treatment naïve AML unsuitable for induction therapy"}, "AML [7]": {"system": "AML", "conditions": "combination with LDAC"}, "[8]": {"conditions": "bev naïve (without prior bevacizumab)"}}, "note": "Like-named read-outs stand apart in the source and are kept apart here.", "data": [{"compound": "CN1CCN(c2ccc(OC(F)(F)F)c(Nc3ncc4c(n3)-c3c(c(C(N)=O)nn3CCO)CC4)c2)CC1", "note": "[onvansertib, 1-(2-hydroxyethyl)-8-{[5-(4-methylpiperazin-1-yl)-2-(trifluoromethoxy)phenyl]amino}-4,5-dihydro-1H-pyrazolo[4,3-h]quinazoline-3-carboxamide]", "values": [{"measurement": "effect on cytarabine antitumor activity", "setting": "[1]", "result": "significantly increased cytarabine antitumor activity"}, {"measurement": "cell-cycle effect", "setting": "[2]; cancer cell lines", "result": "mitotic cell-cycle arrest followed by apoptosis"}, {"measurement": "potency in proliferation assays", "setting": "[2]; large number of cell lines", "result": "low nanomolar activity"}, {"measurement": "tumor regression", "setting": "[3]", "result": "enhanced tumor regression"}, {"measurement": "oral bioavailability", "setting": "[4]", "result": "good oral bioavailability"}, {"measurement": "primary dose-limiting toxicities", "setting": "patients with advanced/metastatic solid tumors", "result": "neutropenia and thrombocytopenia"}, {"measurement": "time to recovery from hematologic toxicities", "setting": "reversible", "result": "≤ 3", "unit": "weeks"}, {"measurement": "specificity for PLK1 among a panel of 296 kinases", "setting": "PLK1", "result": "high specificity"}, {"measurement": "inhibition of cell proliferation", "setting": "AML cell lines", "result": "inhibited cell proliferation at nanomolar concentrations"}, {"measurement": "tumor growth", "setting": "xenograft models of AML", "result": "inhibited"}]}, {"compound": "bevacizumab: anti-angiogenics (angiogenesis inhibitor), Avastin", "values": [{"measurement": "mOS", "setting": "[5]; [8]", "result": 13.9, "unit": "months"}, {"measurement": "mPFS", "setting": "[5]; [8]", "result": 6.9, "unit": "months"}, {"measurement": "mOS", "setting": "[5]; patients with prior bev", "result": 12.5, "unit": "months"}, {"measurement": "mPFS", "setting": "[5]; patients with prior bev", "result": 6.7, "unit": "months"}]}, {"compound": "CC[C@@H]1C(=O)N(C)c2cnc(Nc3ccc(C(=O)N[C@H]4CC[C@H](N5CCN(CC6CC6)CC5)CC4)cc3OC)nc2N1C(C)C", "note": "[volasertib]", "values": [{"measurement": "OS", "setting": "AML [6]", "result": "significant increase in OS"}, {"measurement": "benefit of the combination", "setting": "AML [7]", "result": "no benefit"}, {"measurement": "risk of severe infections", "setting": "AML [7]", "result": "increased risk of severe infections"}]}]}
